Laboratory results: ChEMBL document CHEMBL3045849, “Mode of inhibition of acetylcholinesterase by monoterpenoids and implications for pest control” (Ind Crops Prod, 2010)
Activity calls are given as the source filed them. No cut-off for these calls is given here.

Experiments:
[1] = target: Acetylcholinesterase (Electrophorus electricus) (UniProt O42275); experiment: Reversible inhibition of Electrophorus electricus (electric eel)acetylcholinesterase (AChE) using acetylthiocholine iodide substrate by Ellman method based colorimetry
Sequence of Acetylcholinesterase (Electrophorus electricus) (O42275 24-633 limits assumed): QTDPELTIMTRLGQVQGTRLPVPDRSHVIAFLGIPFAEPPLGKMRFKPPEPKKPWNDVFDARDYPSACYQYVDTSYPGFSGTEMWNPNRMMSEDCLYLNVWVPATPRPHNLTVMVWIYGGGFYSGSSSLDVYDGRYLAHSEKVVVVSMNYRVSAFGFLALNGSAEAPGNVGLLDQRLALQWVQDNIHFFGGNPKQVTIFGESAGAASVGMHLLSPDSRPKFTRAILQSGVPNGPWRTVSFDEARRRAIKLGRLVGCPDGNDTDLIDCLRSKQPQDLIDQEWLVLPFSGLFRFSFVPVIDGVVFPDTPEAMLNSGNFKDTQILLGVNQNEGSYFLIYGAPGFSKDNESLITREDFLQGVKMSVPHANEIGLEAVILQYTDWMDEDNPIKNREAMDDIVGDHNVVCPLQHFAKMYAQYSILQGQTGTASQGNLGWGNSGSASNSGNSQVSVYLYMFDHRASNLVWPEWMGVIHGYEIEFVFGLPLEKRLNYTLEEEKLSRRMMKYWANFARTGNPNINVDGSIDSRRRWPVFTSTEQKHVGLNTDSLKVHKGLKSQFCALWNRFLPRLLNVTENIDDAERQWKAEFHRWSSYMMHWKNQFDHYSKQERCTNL

[2] = target: Acetylcholinesterase (Electrophorus electricus) (UniProt O42275); experiment: Competitive inhibition of Electrophorus electricus (electric eel) acetylcholinesterase (AChE) using acetylthiocholine iodide substrate by Ellman method based colorimetry
Acetylcholinesterase = Acetylcholinesterase (Electrophorus electricus, UniProt O42275); experiment: Inhibition of Electrophorus electricus (electric eel) acetylcholinesterase (AChE) using acetylthiocholine iodide substrate by Ellman method based colorimetry
Sequence of Acetylcholinesterase (O42275 whole entry): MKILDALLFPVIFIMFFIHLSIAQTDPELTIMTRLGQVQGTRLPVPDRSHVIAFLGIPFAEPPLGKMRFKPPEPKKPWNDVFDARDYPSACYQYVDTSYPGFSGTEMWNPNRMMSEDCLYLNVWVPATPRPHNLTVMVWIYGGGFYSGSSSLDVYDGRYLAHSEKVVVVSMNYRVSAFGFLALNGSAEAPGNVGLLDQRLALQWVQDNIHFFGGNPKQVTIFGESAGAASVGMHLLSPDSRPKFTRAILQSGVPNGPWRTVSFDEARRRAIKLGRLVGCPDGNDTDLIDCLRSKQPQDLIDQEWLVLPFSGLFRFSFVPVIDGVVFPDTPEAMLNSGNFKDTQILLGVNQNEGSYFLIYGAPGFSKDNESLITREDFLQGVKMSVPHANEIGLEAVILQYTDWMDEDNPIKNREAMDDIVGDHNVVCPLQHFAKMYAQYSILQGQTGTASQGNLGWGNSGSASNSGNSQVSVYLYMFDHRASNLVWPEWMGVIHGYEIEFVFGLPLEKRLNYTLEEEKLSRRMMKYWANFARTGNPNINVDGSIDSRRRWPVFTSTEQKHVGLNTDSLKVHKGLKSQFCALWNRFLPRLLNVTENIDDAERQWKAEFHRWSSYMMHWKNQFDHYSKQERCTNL

[3] = target: Acetylcholinesterase (Electrophorus electricus) (UniProt O42275); experiment: Mixed type inhibition of Electrophorus electricus (electric eel) acetylcholinesteraseAChE using acetylthiocholine iodide substrate by Ellman method based colorimetry
[4] = target: Acetylcholinesterase (Electrophorus electricus) (UniProt O42275); experiment: Inhibition of Electrophorus electricus (electric eel) acetylcholinesterase (AChE) at 100 mM using 10 mM acetylthiocholine iodide substrate after 15 min by Ellman method based colorimetry
[5] = target: Acetylcholinesterase (Electrophorus electricus) (UniProt O42275); experiment: Inhibition of Electrophorus electricus (electric eel) acetylcholinesterase (AChE) at 1 mM using 1 mM acetylthiocholine iodide substrate after 15 min by Ellman method based colorimetry
[6] = target: Acetylcholinesterase (Electrophorus electricus) (UniProt O42275); experiment: Inhibition of Electrophorus electricus (electric eel) acetylcholinesterase (AChE) at 50 mM using 5 mM acetylthiocholine iodide substrate after 15 min by Ellman method based colorimetry
[7] = target: Acetylcholinesterase (Electrophorus electricus) (UniProt O42275); experiment: Inhibition of Electrophorus electricus (electric eel) acetylcholinesterase (AChE) at 10 mM using 2 mM acetylthiocholine iodide substrate after 15 min by Ellman method based colorimetry

SMILES	inhibition [1]	inhibition [2]	Ki (Acetylcholinesterase; read-out: Ki) [µM]	inhibition [3]	inhibition [4] [%]	inhibition [5] [%]	inhibition [6] [%]	inhibition [7] [%]	Ki (Acetylcholinesterase)
CC1=CCC(C(C)C)=CC1 [GAMMA-TERPINENE]	Active	Active	200	–	–	–	–	–	–
C=CCc1ccc(OC)cc1 [ESTRAGOLE]	Active	–	150	Active	–	–	–	–	–
CC12CCC(C1)C(C)(C)C2=O (configuration not stated) [FENCHONE]	Active	Active	400	–	90.7	53.8	84.1	79.8	–
C/C=C/c1ccc(OC)cc1 [ANETHOLE]	Active	–	–	–	–	–	–	–	Not Active
C=C(C)[C@H]1CC=C(C)C(=O)C1 [(S)(+)CARVONE]	Active	–	300	Active	–	–	–	–	–
CC(C)=CCC/C(C)=C/CO [GERANIOL]	Active	Active	100	–	–	–	–	–	–
CC12CCC(CC1=O)C2(C)C (configuration not stated) [CAMPHOR]	Active	–	50	Active	–	–	–	–	–
C=CC(C)(O)CCC=C(C)C (configuration not stated) [LINALOOL]	Active	Active	300	–	–	–	–	–	–
